Results on 28 compounds are retold here after patent publication US9873702B2, “Heterocyclic compounds as biogenic amine transport modulators” (Southern Research Institute, priority 2014, dated 2018).

Data set [1] concerns the target dopamine transporter (DAT) (Rattus norvegicus, UniProt P23977). Briefly: Dopamine reuptake ([^3H]dopamine uptake) inhibition in rat brain synaptosomes. The following applies: for IC50: DA Uptake EC50 (nM ± SD), rat caudate synaptosomes, 5 nM [^3H]dopamine, 15 min, 25° C., three experiments pooled; for Emax: read-out: DA Uptake Emax (% I ± SD).
Description: Freshly removed caudate was homogenized in 10% ice-cold sucrose with 12 strokes of a hand-held Potter-Elvehj em homogenizer followed by centrifugation at 1000×g for 10 min. The supernatants were saved on ice and used immediately. Transporter activity was assessed using 5 nM [^3H]dopamine. […] The selectivity of the uptake assay for dopamine active transporter (DAT) was optimized by including 100 nM citalopram and 100 nM desipramine as blockers of serotonin transporter (SERT) and norepinephrine transporter (NET) in the sucrose solution and assay buffer. Uptake inhibition assays were conducted at 25° C. and were initiated by adding 100 μl of tissue to 900 μL assay buffer containing test drug and [^3H]dopamine. Test drugs were diluted in assay buffer containing 1 mg/mL bovine serum albumin. Nonspecific uptake was measured by incubating in the presence of 10 μM indatraline. The reactions were stopped after 15 minutes by rapid vacuum filtration with a cell harvester (BRANDEL) over GF/B filters (Whatman) presoaked in wash buffer maintained at 25° C. (10 mM Tris-HCl, pH 7.4/150 mM NaCl). Filters were rinsed with 6 mL wash buffer and retained tritium was quantified by a MicroBeta liquid scintillation counter (PerkinElmer) after overnight extraction in 0.6 mL of liquid scintillation cocktail (Cytoscint, ICN). The data from three experiments were pooled and fit to a dose-response curve equation (using Kaleidagraph), to yield an Emax and EC50 value.
The data from three experiments were pooled and fit to a dose-response curve equation (using KaleidaGraph; Synergy Software, Reading, Pa.) to yield an Emax and IC50 value.

Chain of dopamine transporter (DAT) (P23977 whole entry): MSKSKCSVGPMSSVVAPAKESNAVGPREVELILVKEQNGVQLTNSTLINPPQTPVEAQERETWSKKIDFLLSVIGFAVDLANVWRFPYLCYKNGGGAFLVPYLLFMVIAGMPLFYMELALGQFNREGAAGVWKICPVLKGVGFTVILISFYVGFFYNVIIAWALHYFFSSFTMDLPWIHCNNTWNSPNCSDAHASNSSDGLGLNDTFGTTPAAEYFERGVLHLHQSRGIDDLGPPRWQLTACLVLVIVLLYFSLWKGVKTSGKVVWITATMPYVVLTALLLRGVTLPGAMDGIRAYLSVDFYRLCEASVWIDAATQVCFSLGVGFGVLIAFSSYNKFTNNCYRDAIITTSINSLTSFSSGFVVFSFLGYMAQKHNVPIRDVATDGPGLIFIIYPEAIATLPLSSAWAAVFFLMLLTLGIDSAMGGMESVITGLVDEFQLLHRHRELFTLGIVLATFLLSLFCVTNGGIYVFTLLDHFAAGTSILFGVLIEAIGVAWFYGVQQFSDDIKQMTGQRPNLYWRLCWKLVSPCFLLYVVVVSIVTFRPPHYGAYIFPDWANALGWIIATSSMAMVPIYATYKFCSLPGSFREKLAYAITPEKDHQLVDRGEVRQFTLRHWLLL

As a reminder, the melting point is the temperature of the solid-liquid transition. The IC50 is the concentration that inhibits the measured activity by half. For orientation: Emax means the maximal effect, on the per cent scale that the assay sets. In turn, `CS(=O)(=O)n1ccc2cc(-c3nc(NCC(c4ccccc4)c4ccccc4)c4ccccc4n3)ccc21` [compound 154, N-(2,2-Diphenylethyl)-2-(1-(Methylsulfonyl)-1H-Indol-5-yl)Quinazolin-4-Amine] came in with a melting point of 144 to 146 °C. Besides, in data set [1], the midpoint of inhibition, the IC50, lay at 56 ± 13 nM and the Emax stood at 73 ± 3%.

On to `c1cncc(C(CNc2nc(-c3ccc4nccn4c3)nc3ccccc23)c2ccc[nH]2)c1` (stereo not drawn) [compound 155, 2-(Imidazo[1,2-A]Pyridin-6-yl)-N-(2-(pyridin-3-yl)-2-(1H-Pyrrol-2-yl)Ethyl)Quinazolin-4-Amine], for which the melting point lay in the range of 121 to 124 °C. Besides, in data set [1], the IC50 is 175 ± 65 nM and the Emax came out at 77 ± 6%.

Consider `Cc1cc2nccn2cc1-c1nc(NCC(c2cccnc2)c2ccc[nH]2)c2ccccc2n1` (stereo not drawn) [compound 156, 2-(7-Methylimidazo[1,2-A]Pyridin-6-yl)-N-(2-(Pyridin-3-yl)-2-(1H-Pyrrol-2-yl)Ethyl)Quinazolin-4-Amine], for which the melting point is 121 to 125 °C. Further, in data set [1], the IC50 is 14 ± 3 nM and the Emax was 68 ± 2%.

As to `Cc1cc2nccn2cc1-c1nc(NCC(c2ccncc2)c2ccncc2)c2ccccc2n1` [compound 157, N-(2,2-Di(Pyridin-4-yl)Ethyl)-2-(7-Methylimidazo[1,2-A]Pyridin-6-yl)Quinazolin-4-Amine], the melting point fell in the range of 170 to 175 °C. Moreover, in data set [1], the IC50 stood at 15 ± 3 nM and the Emax worked out at 74 ± 2%.

Compound `c1ccc2c(NCC(c3ccncc3)c3ccncc3)nc(-c3ccc4nccn4c3)nc2c1` [compound 158, N-(2,2-Di(Pyridin-4-yl)Ethyl)-2-(Imidazo[1,2-A]Pyridin-6-yl)Quinazolin-4-Amine] returned a melting point of 192 to 196 °C. In data set [1], it took 66 ± 10 nM to reach half-maximal inhibition (IC50) and the Emax worked out at 68 ± 2%.

`Cc1cc2nccn2cc1-c1nc(NCCc2ccccc2)c2ccccc2n1` [compound 160, 2-(7-Methylimidazo[1,2-A]Pyridin-6-yl)-N-Phenethylquinazolin-4-Amine] registered a melting point of 192 to 196 °C. Also, in data set [1], the midpoint of inhibition, the IC50, lay at 11 ± 1 nM and the Emax came out at 69 ± 1%.

The compound `c1ccc(CCNc2nc(-c3ccc4nccn4c3)nc3ccccc23)cc1` [compound 161, 2-(Imidazo[1,2-A]Pyridin-6-yl)-N-Phenethylquinazolin-4-Amine] yielded a melting point of 246 to 247 °C. Besides, in data set [1], the IC50 was 168 ± 22 nM and the Emax was 51 ± 1%.

For `Cc1cc2nccn2cc1-c1nc(NC[C@H](c2ccccc2)n2cccc2)c2ccccc2n1` [compound 162, (S)-2-(7-Methylimidazo[1,2-A]Pyridin-6-yl)-N-(2-Phenyl-2-(1H-Pyrrol-1-yl)Ethyl)Quinazolin-4-Amine], the melting point is 196 to 198 °C. In addition, in data set [1], the IC50 was 2.2 ± 0.4 nM and the Emax came to 62 ± 2%.

For `c1ccc(C(CNc2nc(N3CCc4[nH]ccc4C3)nc3ccccc23)c2ccccc2)cc1` [compound 163, 2-(6,7-Dihydro-1H-Pyrrolo[3,2-C]Pyridin-5(4H)-yl)-N-(2,2-Diphenylethyl)Quinazolin-4-Amine], the melting point was in the range of 166 to 168 °C. Further, in data set [1], the concentration for half-maximal inhibition (IC50) is 3.7 ± 1.5 nM and the Emax was 87 ± 6%.

In the case of `CC(CNc1nc(-c2ccc3nccn3c2)nc2ccccc12)(c1ccccc1)c1ccccc1` [compound 164, N-(2,2-Diphenylpropyl)-2-(Imidazo[1,2-A]Pyridin-6-yl)Quinazolin-4-Amine], the melting point was in the range of 107 to 109 °C. In data set [1], the IC50 was 6.4 ± 1.6 nM and the Emax was determined as 76 ± 3%.

In turn, `c1ccc(CC(Nc2nc(-c3ccc4nccn4c3)nc3ccccc23)c2ccccc2)cc1` (stereo not drawn) [compound 165, N-(1,2-Diphenylethyl)-2-(Imidazo[1,2-A]pyridin-6-yl)Quinazolin-4-Amine] returned a melting point of 203 to 204 °C. Further, in data set [1], the IC50 is 14 ± 2 nM and the Emax amounted to 78 ± 2%.

In turn, `c1ccc(CCC(Nc2nc(-c3ccc4nccn4c3)nc3ccccc23)c2ccccc2)cc1` (stereo not drawn) [compound 166, N-(1,3-Diphenylpropyl)-2-(Imidazo[1,2-A]Pyridin-6-yl)Quinazolin-4-Amine] showed a melting point of 190 to 192 °C. Besides, in data set [1], the IC50 came to 42 ± 7 nM and the Emax worked out at 68 ± 2%.

`Cc1cc2nccn2cc1-c1nc(NC(CCc2ccccc2)c2ccccc2)c2ccccc2n1` (stereo not drawn) [compound 167, N-(1,3-Diphenylpropyl)-2-(7-Methylimidazo[1,2-A]Pyridin-6-yl)Quinazolin-4-Amine]: the melting point fell in the range of 119 to 120 °C. Further, in data set [1], it took 9.4 ± 2.3 nM to reach half-maximal inhibition (IC50) and the Emax was 76 ± 3%.

`CC(C)C(CNc1nc(-c2ccc3nccn3c2)nc2ccccc12)c1ccccc1` (stereo not drawn) [compound 168, 2-(Imidazo[1,2-A]Pyridin-6-yl)-N-(3-Methyl-2-Phenylbutyl)Quinazolin-4-Amine]: the melting point fell in the range of 195 to 196 °C. In addition, in data set [1], the IC50 stood at 24 ± 5 nM and the Emax is 75 ± 2%.

`Cc1cc2nccn2cc1-c1nc(NCC(c2ccccc2)C(C)C)c2ccccc2n1` (stereo not drawn) [compound 169, N-(3-Methyl-2-Phenylbutyl)-2-(7-Methylimidazo[1,2-A]Pyridin-6-yl)Quinazolin-4-Amine] registered a melting point of 115 to 118 °C. Further, in data set [1], the IC50 came to 1.8 ± 0.4 nM and the Emax was found to be 64 ± 2%.

In the case of `CCN(CC)C(=O)[C@]1(c2ccccc2)C[C@@H]1CNc1nc(-c2ccc3nccn3c2)nc2ccccc12` [compound 170, (1R,2S)—N,N-Diethyl-2-(((2-(Imidazo[1,2-A]Pyridin-6-yl)Quinazolin-4-yl)Amino)Methyl)-1-Phenylcyclopropanecarboxamide], the melting point was 221 to 223 °C. In addition, in data set [1], the IC50 is 78 ± 14 nM and the Emax worked out at 72 ± 2%.

In turn, `CCN(CC)C(=O)[C@]1(c2ccccc2)C[C@@H]1CNc1nc(-c2cn3ccnc3cc2C)nc2ccccc12` [compound 171, (1R,2S)—N,N-Diethyl-2-(((2-(7-Methylimidazo[1,2-A]pyridin-6-yl)Quinazolin-4-yl)Amino)Methyl)-1-Phenylcyclopropanecarboxamide] came in with a melting point of 225 to 228 °C. For the same compound, in data set [1], the IC50 was 16 ± 7 nM and the Emax came to 73 ± 5%.

Consider `Cc1cc2nccn2cc1-c1nc(NC(Cc2ccccc2)c2ccccc2)c2ccccc2n1` (stereo not drawn) [compound 172, N-(1,2-Diphenylethyl)-2-(7-Methylimidazo[1,2-A]Pyridin-6-yl)Quinazolin-4-Amine], for which the melting point lay in the range of 87 to 89 °C. Further, in data set [1], half-maximal inhibition (IC50) was put at 5 ± 1.1 nM and the Emax was 76 ± 2%.

Compound `c1ccc2c(NCC(c3ccncc3)c3ccncc3)nc(-c3ccc4[nH]ccc4c3)nc2c1` [compound 173, N-(2,2-Di(pyridin-4-yl)Ethyl)-2-(1H-Indol-5-yl)Quinazolin-4-Amine] returned a melting point of 201 to 202 °C. Also, in data set [1], the IC50 was 140 ± 30 nM and the maximal response (Emax) worked out at 80 ± 3%.

The compound `c1ccc2c(NCC(c3ccncc3)c3ccncc3)nc(N3CCc4[nH]ccc4C3)nc2c1` [compound 174, N-(2,2-Di(pyridin-4-yl)Ethyl)-2-(6,7-Dihydro-1H-Pyrrolo[3,2-C]Pyridin-5(4H)-yl)Quinazolin-4-Amine] registered a melting point of 224 to 226 °C. Besides, in data set [1], the 50% inhibitory concentration (IC50) is 31 ± 10 nM and the Emax was found to be 88 ± 4%.

In the case of `c1ccc(OC(CNc2nc(-c3ccc4nccn4c3)nc3ccccc23)c2ccccc2)cc1` (stereo not drawn) [compound 175, 2-(Imidazo[1,2-A]Pyridin-6-yl)-N-(2-Phenoxy-2-Phenylethyl)Quinazolin-4-Amine], the melting point is 286 to 288 °C. Moreover, in data set [1], half-maximal inhibition (IC50) required 106 ± 19 nM and the maximal effect (Emax) was 68 ± 2%.

In turn, `Cc1cc2nccn2cc1-c1nc(NCC(Oc2ccccc2)c2ccccc2)c2ccccc2n1` (stereo not drawn) [compound 177, 2-(7-Methylimidazo[1,2-A]Pyridin-6-yl)-N-(2-Phenoxy-2-Phenylethyl)Quinazolin-4-Amine] had a melting point of 243 to 246 °C. Moreover, in data set [1], the IC50 was 2.3 ± 0.5 nM and the maximal effect (Emax) was 75 ± 3%.

For `Cc1cc2nccn2cc1-c1nc(NCC(C)(c2ccccc2)c2ccccc2)c2ccccc2n1` [compound 178, N-(2,2-Diphenylpropyl)-2-(7-Methylimidazo[1,2-A]Pyridin-6-yl)Quinazolin-4-Amine], the melting point was 275 to 277 °C. In addition, in data set [1], it took 5 ± 1.1 nM to reach half-maximal inhibition (IC50) and the Emax is 76 ± 3%.

Take `Cc1cc2nccn2cc1-c1nc(NCC(c2ccccc2)C2CC2)c2ccccc2n1` (stereo not drawn) [compound 179, N-(2-Cyclopropyl-2-Phenylethyl)-2-(7-Methylimidazo[1,2-A]Pyridin-6-yl)Quinazolin-4-Amine]: the melting point was in the range of 236 to 238 °C. In addition, in data set [1], the concentration for half-maximal inhibition (IC50) worked out at 3 ± 1 nM and the Emax stood at 80 ± 4%.

Turning to `Cc1cc2nccn2cc1-c1nc(NCCc2cccnc2)c2ccccc2n1` [compound 180, 2-(7-Methylimidazo[1,2-A]Pyridin-6-yl)-N-(2-(Pyridin-3-yl)Ethyl)Quinazolin-4-Amine], the melting point is 241 to 244 °C. In addition, in data set [1], half-maximal inhibition (IC50) was put at 252 ± 22 nM and the Emax turned out to be 73 ± 1%.

Compound `Cc1cc2nccn2cc1-c1nc(NCCc2ccncc2)c2ccccc2n1` [compound 181, 2-(7-Methylimidazo[1,2-A]Pyridin-6-yl)-N-(2-(Pyridin-4-yl)Ethyl)Quinazolin-4-Amine] yielded a melting point of 234 to 236 °C. For the same compound, in data set [1], the IC50 amounted to 85 ± 5 nM and the Emax came to 72 ± 1%.

Turning to `Cc1cc2nccn2cc1-c1nc(NCC(Cc2ccccc2)Cc2ccccc2)c2ccccc2n1` [compound 182, N-(2-Benzyl-3-Phenylpropyl)-2-(7-Methylimidazo[1,2-A]Pyridin-6-yl)Quinazolin-4-Amine], the melting point fell in the range of 181 to 184 °C. Moreover, in data set [1], half-maximal inhibition (IC50) required 8.3 ± 0.9 nM and the Emax was found to be 75 ± 1%.

On to `Cc1cc2nccn2cc1-c1nc(NCCc2ccccn2)c2ccccc2n1` [compound 183, (7-Methylimidazo[1,2-A]Pyridin-6-yl)-N-(2-(Pyridin-2-yl)Ethyl)Quinazolin-4-Amine], for which the melting point lay in the range of 224 to 228 °C. Moreover, in data set [1], half-maximal inhibition (IC50) was put at 912 ± 195 nM and the Emax was determined as 77 ± 4%.
